These results are taken from US8658684B2, “Pharmaceutical composition and its use in the preparation of a medicament for the treatment of cerebrovascular diseases” (Jiangsu Simcere Pharmaceutical R & D Co., Ltd., priority 2008, dated 2014).

Series [1] concerns focal cerebral ischemia reperfusion model rats. Put plainly: Focal cerebral ischemia reperfusion model in rats, intraperitoneal dosing (Example 16). The format is in vivo, Wistar rats. As to conditions: for Cerebral infarction size (%): 2 h ischemia, 24 h reperfusion, i.p. twice (30 min before ischemia, 12 h after reperfusion), combination 0.5+0.25 mg/kg, control 35.7 ± 7.52; for Cerebral infarction size (%) / neurological deficit score (points) / Cerebral water content (%): Edaravone 1.0 mg/kg, natural borneol 0.5 mg/kg, mean ± SD; for neurological deficit score (points): Longa 5-point scoring 24 h after reperfusion, control 3.1 ± 1.05; for neurological deficit score (points) / Cerebral water content (%): combination 0.5+0.25 mg/kg i.p. twice; for Cerebral water content (%): dry and wet method after ischemia/reperfusion, sham 78.41, control 82.19; for cerebral edema / cerebral water content compared with control group: single drugs P<0.05, combination P<0.01; for effect on symptoms of neurological deficits: versus control group, doses as Table 1. As to the method:
1.1 Animals: healthy male Wistar rats weighing 280-320 g.
1.2 Drugs and Reagents: Edaravone for injection (2 mg/mL) of Example 1, natural borneol injection (2 mg/mL) of Example 3 and Edaravone+natural borneol injection of Example 5.
Main steps are described as follows. Rats were anesthetized with 10% chloral hydrate (350 mg/kg, i.p.). Right external carotid was separated, ligated and severed. A nylon thread with rounded tip was inserted slowly for about 18 mm in depth into the residual end of right external carotid and through common carotid and internal carotid to induce ischemia by blocking the origin of middle cerebral artery. After ischemia for 2 h, the nylon thread was removed for reperfusion for 24 h. Animals in the sham group were treated identically to those in the model group, except that a nylon thread was just used to separate the artery. Manifestation of Homer's symptom and opposite lateral body dyskinesia after animal revival means a successful modelling.
Experimental animals were randomly divided into five groups, including sham group, control group and drug groups. Animals in drug groups were intraperitoneally injected twice, 30 min before ischemia and 12 h after reperfusion. Animals in sham group and control group were each injected with equal volume of normal saline instead.
Neurological deficit scoring: Behavioral evaluation was performed 24 h after reperfusion according to Longa 5-point scoring system.
Determination of cerebral infarction size: Animals were decapitated to get the brain after the last neurological deficit scoring. Rhinencephalon, lower brain stem and cerebella were removed, and the remaining brains were immediately weighted to obtain wet weights. The brains were sectioned coronally into five slices with substantially identical thickness on ice, then incubated in 2,3,5-triphenyl tetrazolium chloride for 30 min at 37° C. Normal brain tissues appeared rose, while infarction areas appeared white. Next, brain slices were fixed in 10% formaldehyde, and white tissues were carefully removed and weighed. Infarction size was determined by the percentage of infracted tissue weight in the total cerebral weight.
Determination of cerebral water content: Cerebral water contents were determined by dry and wet method. Animals were sacrificed to get the whole brain. Rhinencephalon, lower brain stem and cerebella were removed and the wet weight of the remaining brains was determined immediately. Dry weight was obtained after baking in a oven for about 18 h at 120° C. Cerebral water content was calculated according to the following equation: Cerebral water content (%)=(cerebral wet weight−cerebral dry weight)/cerebral wetweight×100.

Series [2] relates to cerebral ischemia/reperfusion model rats. The series is described as follows: Focal cerebral ischemia/reperfusion model, Edaravone versus combinations 2:1, 4:1, 9:1 (Example 18). The format is in vivo, Wistar rats. As to the method:
1.1 Animals: Healthy male Wistar rats weighing 280-320 g.
1.2 Drugs and Reagents: Edaravone for injection (2 mg/mL) of Example 1, and Edaravone+natural borneol for injection of Examples 5, 7 and 11.
Experimental methods and evaluation methods are the same as Example 13.

A further series deals with New Zealand rabbits. Put plainly: Repeated intravenous toxicity in rabbits: hematuria, gross necropsy, histopathology (Example 19). The format is in vivo. As to conditions: for incidence of hematuria: marginal ear vein once daily, 6 rabbits. The method, then: 1.1 Animals: 36 New Zealand rabbits, general grade, with body weight of 2.0-3.0 kg, 18 ♂ and 18 ♀(female and male) respectively.
1.2 Drugs and Reagents: drugs obtained from Examples 12, 13, 14 and 15; 1,2-propylene glycol, 0.9% sodium chloride injection.
Edaravone 80 mg/kg (propylene glycol content: 40%)
Edaravone 20 mg/kg (propylene glycol content: 10%)
Combined Edaravone 120 mg/kg (propylene glycol content: 50%)
Combined Edaravone 30 mg/kg (propylene glycol content: 10%)
Combined Edaravone in this Example refers to Edaravone+natural borneol (weight ratio=2:1).
In the above dosage groups, the dosage per day per rabbit was calculated according to actual weight of each rabbit. The test drugs were administrated in equal volume according to body weight of respective rabbits.
36 rabbits were numbered and randomly divided into six groups according to the body weight, including 4 dosage groups, “Edaravone+natural borneol (weight ratio=2:1)” 120 mg/kg, 30 mg/kg; “Edaravone” 80 mg/kg, 20 mg/kg; as well as vehicle group (40% propylene glycol solution) and solvent group (0.9% sodium chloride injection). There were 6 rabbits in each group, including 3 males and 3 females each. Rabbits were habituated and observed for 3 days before the test. During the test, rabbits were dosed once at the same time in each morning via marginal ear vein injection. Rabbits in high dosage groups were continuously dosed for 13 days, while in low dosage groups, solvent group and vehicle group for 20 days. The dosage were regulated in accordance with body weight variation. Animal responses, stimulations at injection sites and histopathological examination in kidneys and injection site were used to comprehensively evaluate the toxicity of either combined Edaravone or Edaravone on the rabbits.

Series [3] relates to MCAO cerebral ischemia/reperfusion model rats. Put plainly: Middle cerebral artery occlusion (MCAO) cerebral ischemia/reperfusion model, internal carotid thread method (Example 17). Format: in vivo, Wistar rats. As to conditions: Edaravone+natural borneol total 0.75 mg/kg, Nimodipine 0.4 mg/kg single dosage, mean ± SD, n=8.
Protocol: 1.2 Drugs and Reagents: Edaravone+natural borneol for injection of Examples 5, 8 and 9.
Middle cerebral artery occlusion (MCAO), a cerebral ischemia/reperfusion model, was prepared using the internal carotid thread method. Animals were anesthetized with 10% chloral hydrate (3.5 mL/kg), and then fixed on the operation table in prone position. The skin was disinfected and the neck was incised from the midline. Right common carotid, external carotid and internal carotid were separated, and vagus nerve was separated carefully. The external carotid was ligated and severed. Moved forward along the internal carotid, and then pterygopalatine artery was ligated. The proximal part of common carotid was clamped and a cut was made at the distal end of the external carotid ligature. A nylon thread with the outer diameter of 0.285 mm was inserted into the cut, through the branch of common carotid and then into internal carotid slowly until a slight resistance was met (about 20 mm distance from the divergence point). […] Cerebral blood flow was monitored by using laser Doppler cerebral flowmetry. After ischemia in the right brain for 2.0 h, the nylon thread was withdrawn slowly and then blood supply was recovered for reperfusion. The scalp was sutured and disinfected. In the sham group, only the blood vessels were separated without the insertion of a nylon thread. During the operation, rat heating plate and desk lamp with 60 W were used to keep the body temperature of rats at 37.0±0.5° C. […]
Neurological deficit scoring: neurological deficit symptoms were evaluated according to modified Bederson scoring system of 5-point. Neurological deficit symptoms after cerebral trauma in rats were evaluated by using single-blinded method. That is, the experiment designer labeled the animals in groups, while the experiment performer who scored neurological deficit symptoms were blinded for animals grouping. […]
Where [4] appears, read: Edaravone 80 and 20 mg/kg groups, combined Edaravone 120 and 30 mg/kg groups.

As for `CC1=NN(c2ccccc2)C(=O)C1` [Edaravone, 3-methyl-1-phenyl-2-pyrazolin-5-one], in series [1], the “Cerebral infarction size (%)” value came to 18.0 ± 5.29 %, the “neurological deficit score (points)” value was 2.5 ± 1.02 points, the “Cerebral water content (%)” value amounted to 81.65 ± 1.24 % and the “cerebral edema / cerebral water content compared with control group” value was “significant effect”. Besides, in series [1], the “effect on symptoms of neurological deficits” value is “Neither Edaravone alone nor natural borneol alone had significant effect”. In series [2] (Edaravone 3 mg/kg, combination dose not given, mean ± SD, n=8, model 2.7 ± 0.5), the “neurological deficit symptoms score” value is recorded as 0.94 ± 0.46. Moreover, the cerebral infarction area in series [2] (Edaravone 3 mg/kg, combination dose not given, mean ± SD, n=8, model 25.4 ± 14.8) is recorded as 9.7 ± 4.6. In series [2] (Edaravone 3 mg/kg, combination dose not given, mean ± SD, n=8, model 32.2 ± 15.1), the brain lesion is reported as 11.6 ± 9.7. In addition, the “cerebral infarction area compared with model group” value in series [2] (F4,35=4.62, P=0.03, 4:1 and 9:1 P=0.081) is given as “significantly reduced”. For the same molecule, the “severity of brain lesion compared with model group” value in series [2] (F4,35=5.78, P=0.04, 4:1 and 9:1 P=0.159) is reported as “significantly reduced”. In addition, in the series on New Zealand rabbits (20 mg/kg i.v. daily, 20 days), the “gross necropsy: rabbits with a swollen kidney” value was 3 of 6. Moreover, the incidence of hematuria in the series on New Zealand rabbits (20 mg/kg, 20 days, propylene glycol 10%) came to 100%. Also, in the series with New Zealand rabbits (80 mg/kg i.v. daily, 13 days), the “gross necropsy: liver finding” value was “one of the rabbits suffered hepatonecrosis and had a khaki and hard liver”; the “gross necropsy: rabbits with khaki and swollen kidney having uneven surface” value is on record as 3 of 6. Also, the incidence of hematuria in the series on New Zealand rabbits (80 mg/kg, 13 days, propylene glycol 40%) came out at 100%. For the same molecule, in the series with New Zealand rabbits (setting [4]), the “histopathological examination: injection sites” value was “stimulatory changes such as vascular occlusion to varied extents”; the “histopathological examination: kidney” value is “progressive renal lesion such as renal tubular lesion, inflammatory infiltration of mesenchyme, and glomerular lesion”.
As for `CC1(C)C2CCC1(C)C(O)C2` (stereo not shown) [Natural borneol, dextro-camphol], in series [1], the “Cerebral infarction size (%)” value was 19.8 ± 6.37 %, the “neurological deficit score (points)” value is recorded as 2.0 ± 0.98 points, the “Cerebral water content (%)” value is 81.25 ± 0.97 % and the “cerebral edema / cerebral water content compared with control group” value is reported as “significant effect”. Moreover, the “effect on symptoms of neurological deficits” value in series [1] is “Neither Edaravone alone nor natural borneol alone had significant effect”.
`COCCOC(=O)C1=C(C)NC(C)=C(C(=O)OC(C)C)C1c1cccc([N+](=O)[O-])c1` (stereo not shown) [Nimodipine]: the “neurological deficit symptoms score” value in series [3] (modified Bederson 5-point score, four administrations (0, 2, 4, 24 h after ischemia), model 2.6 ± 0.52) came out at 1.1 ± 0.58. Moreover, the brain lesion in series [3] (percentage of brain lesion by formazan absorbance at 485 nm, model 33.2 ± 14.8) is 11.6 ± 5.0. In series [3] (percentage of infarction area by TTC image analysis, model 27.4 ± 13.4), this molecule had a cerebral infarction area of 8.8 ± 4.0.
